Laboratory results published in ChEMBL document CHEMBL1201862, “PubChem BioAssay data set” (2004).
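Each compound was tested at five concentrations against cells in 96-well plates for 48 hours. Here, GI50 denotes the concentration required for 50% inhibition of growth.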 Calls of active or inactive are those of the source. Cut-off read from the data, not from the text of the source: active = GI50 up to about 1.1 µM and inactive = higher.

How the values were obtained:
Test in all cases: DTP human tumour cell line panel, 48 h
[1] = test system: Hs-578T
[2] = test system: CAKI-1
[3] = test system: MDA-MB-231
[4] = test system: M14
[5] = test system: 786-0
[6] = test system: NCI-H226
[7] = test system: HCT-15
[8] = test system: EKVX
[9] = test system: MDA-MB-435
[10] = test system: TK-10
[11] = test system: OVCAR-5
[12] = test system: NCI-H460
[13] = test system: HCT-116
[14] = test system: HT-29
[15] = test system: OVCAR-4
[16] = test system: DU-145
[17] = test system: NCI/ADR-RES
[18] = test system: SK-OV-3
[19] = test system: HOP-92
[20] = test system: SNB-75

SMILES | GI50 [1] | GI50 [2] | GI50 [3] | GI50 [4] | GI50 [5] | GI50 [6] | GI50 [7] [µM] | GI50 [8] | GI50 [9] | GI50 [10] | GI50 [11] | GI50 [12] | GI50 [13] | GI50 [14] | GI50 [15] | GI50 [16] | GI50 [17] | GI50 [18] | GI50 [19] | GI50 [20]
C=Cc1c(C)c(O)cc2c1-c1ccc(O)c(C)c1CC2 | 3.11 µM (inactive) | 13.9 µM (inactive) | 23.2 µM (inactive) | 20.9 µM (inactive) | 15.8 µM (inactive) | 17.3 µM (inactive) | 12.2 | 1.97 µM (inactive) | 14.1 µM (inactive) | 13.1 µM (inactive) | 27.2 µM (inactive) | 20.1 µM (inactive) | 14.1 µM (inactive) | 23.7 µM (inactive) | 17.1 µM (inactive) | 14.1 µM (inactive) | 21 µM (inactive) | 17 µM (inactive) | 23.2 µM (inactive) | 
Nc1nc(N)c2ncn(CC3CCC(CO)C3)c2n1 (configuration not stated) | > 100 µM (inactive) | > 100 µM (inactive) | > 100 µM (inactive) | > 100 µM (inactive) | > 100 µM (inactive) | > 100 µM (inactive) | > 100 | > 100 µM (inactive) | > 100 µM (inactive) | > 100 µM (inactive) | > 100 µM (inactive) |  | > 100 µM (inactive) |  | > 100 µM (inactive) | > 100 µM (inactive) | > 100 µM (inactive) | > 100 µM (inactive) | > 100 µM (inactive) | > 100 µM (inactive)
Cc1ccc(/N=N/c2cc(=O)[nH]c(=O)[nH]2)cc1C | > 10 µM (inactive) |  | 11.9 µM (inactive) | 14.2 µM (inactive) | 2.82 µM (inactive) | 19.1 µM (inactive) | 2.85 | 17.9 µM (inactive) | 11.2 µM (inactive) | 19.4 µM (inactive) | 15.4 µM (inactive) | 17.2 µM (inactive) | 5.58 µM (inactive) | 1.97 µM (inactive) | 13.9 µM (inactive) | 14.7 µM (inactive) | 34 µM (inactive) |  | 16.4 µM (inactive) | 3.9 µM (inactive)
COc1ccccc1OCC(=N/NC(=O)c1ccncc1)/N=C/c1ccncc1 | > 100 µM (inactive) | > 100 µM (inactive) | > 100 µM (inactive) | > 100 µM (inactive) | > 100 µM (inactive) | > 100 µM (inactive) | > 100 | > 100 µM (inactive) | > 100 µM (inactive) | > 100 µM (inactive) | > 100 µM (inactive) | > 100 µM (inactive) | > 100 µM (inactive) | > 100 µM (inactive) | > 100 µM (inactive) | > 100 µM (inactive) | > 100 µM (inactive) | > 100 µM (inactive) | 44 µM (inactive) | 
O=c1[nH]c(=O)n(C2OC(CO)C(O)C2O)c2ccsc12 (configuration not stated) | > 100 µM (inactive) | > 100 µM (inactive) | > 100 µM (inactive) | > 100 µM (inactive) | > 100 µM (inactive) | > 100 µM (inactive) | > 100 | > 100 µM (inactive) | > 100 µM (inactive) | > 100 µM (inactive) | > 100 µM (inactive) | > 100 µM (inactive) | > 100 µM (inactive) | > 100 µM (inactive) | > 100 µM (inactive) | > 100 µM (inactive) | > 100 µM (inactive) |  | > 100 µM (inactive) | > 100 µM (inactive)
O=C(Nn1c(-c2ccccc2)nc2ccccc2c1=O)c1ccc([N+](=O)[O-])cc1 | > 100 µM (inactive) |  | > 100 µM (inactive) | > 100 µM (inactive) | > 100 µM (inactive) | 46.3 µM (inactive) | > 100 | > 100 µM (inactive) | > 100 µM (inactive) | > 100 µM (inactive) | > 100 µM (inactive) | > 100 µM (inactive) | > 10 µM (inactive) | > 100 µM (inactive) | > 100 µM (inactive) | > 100 µM (inactive) | > 100 µM (inactive) | > 100 µM (inactive) | 32.4 µM (inactive) | > 100 µM (inactive)
